According to patent US8653092B2, “Tetrahydro-pyrido-pyrimidine derivatives” (Novartis AG, priority 2010, dated 2014):
Read-outs that look alike come from different tables or passages of the source.

Columns and labels:
murine B cells = experiment: Murine B cell activation: CD86 upregulation after anti-IgM stimulation; format: cell-based, mouse; details: Mus musculus, 24 h, read-out: mCD86/IC50 CD86 [nmol l − 1]
Experimental: Spleens from Balb/c mice were collected, splenocytes were isolated and washed twice with RPMI containing 10% foetal bovine serum (FBS), 10 mM HEPES, 100 Units/mL penicilline/streptomycine. RPMI supplemented in this way is subsequently referred to as medium. The cells were adjusted to 2.5×10^6 cells/mL in medium and 200 μl cell suspension (5×10^6 cells) were added to the appropriate wells of 96 well plates.
Then the cells were stimulated by adding 50 μl anti-IgM mAb in medium (final concentration: 30 μg/mL). After incubation for 24 hours at 37° C., the cells were stained with the following antibody cocktails: anti-mouse CD86-FITC, anti-mouse CD69-PerCP-Cy5.5, anti-mouse CD19-PerCP for the assessment of B cells, and anti-mouse CD3-FITC, anti-mouse CD69-PE for the assessment of T cells (2 μl of each antibody/well). After one hour at room temperature (RT) in the dark the cells were transferred to 96 Deepwell plates. The cells were washed once with 1 mL PBS containing 2% FBS and after re-suspension in 200 μl the samples were analyzed on a FACS Calibur flow cytometer. Lymphocytes were gated in the FSC/SSC dot plot according to size and granularity and further analyzed for expression of CD19, CD3 and activation markers (CD86, CD69). Data were calculated from dot blots as percentage of cells positively stained for activation markers within the CD19+ or CD3+ population using BD CellQest Software.
For assessing the inhibitory property of compounds, compounds were first dissolved and diluted in DMSO followed by a 1:50 dilution in medium. Splenocytes from Balb/c mice were isolated, re-suspended and transfered to 96 well plates as described above (200 μl/well). The diluted compounds or solvent were added to the plates (25 μl) and incubated at 37° C. for 1 hour. Then the cultures were stimulated with 25 μl anti-IgM mAb/well (final concentration […]) for 24 hours at 37° C. and stained with anti-mouse CD86-FITC and anti-mouse CD19-PerCP (2 μl of each antibody/well). CD86 expression on CD19 positive B cells was quantified by flow cytometry as described above.

PI3K alpha = PI3K alpha (Homo sapiens (Human), UniProt P42336); experiment: Enzymatic PI3K alpha isoform inhibition (lipid kinase, Kinase-Glo luminescence); format: biochemical; details: enzymatic assay
PI3K delta = PI3K delta (Homo sapiens (Human), UniProt O00329); experiment: Enzymatic PI3K delta isoform inhibition (lipid kinase, Kinase-Glo luminescence); format: biochemical
PI3K delta, sequence (O00329 other isoform, or with tags, fused parts or gaps linker GGGGGG): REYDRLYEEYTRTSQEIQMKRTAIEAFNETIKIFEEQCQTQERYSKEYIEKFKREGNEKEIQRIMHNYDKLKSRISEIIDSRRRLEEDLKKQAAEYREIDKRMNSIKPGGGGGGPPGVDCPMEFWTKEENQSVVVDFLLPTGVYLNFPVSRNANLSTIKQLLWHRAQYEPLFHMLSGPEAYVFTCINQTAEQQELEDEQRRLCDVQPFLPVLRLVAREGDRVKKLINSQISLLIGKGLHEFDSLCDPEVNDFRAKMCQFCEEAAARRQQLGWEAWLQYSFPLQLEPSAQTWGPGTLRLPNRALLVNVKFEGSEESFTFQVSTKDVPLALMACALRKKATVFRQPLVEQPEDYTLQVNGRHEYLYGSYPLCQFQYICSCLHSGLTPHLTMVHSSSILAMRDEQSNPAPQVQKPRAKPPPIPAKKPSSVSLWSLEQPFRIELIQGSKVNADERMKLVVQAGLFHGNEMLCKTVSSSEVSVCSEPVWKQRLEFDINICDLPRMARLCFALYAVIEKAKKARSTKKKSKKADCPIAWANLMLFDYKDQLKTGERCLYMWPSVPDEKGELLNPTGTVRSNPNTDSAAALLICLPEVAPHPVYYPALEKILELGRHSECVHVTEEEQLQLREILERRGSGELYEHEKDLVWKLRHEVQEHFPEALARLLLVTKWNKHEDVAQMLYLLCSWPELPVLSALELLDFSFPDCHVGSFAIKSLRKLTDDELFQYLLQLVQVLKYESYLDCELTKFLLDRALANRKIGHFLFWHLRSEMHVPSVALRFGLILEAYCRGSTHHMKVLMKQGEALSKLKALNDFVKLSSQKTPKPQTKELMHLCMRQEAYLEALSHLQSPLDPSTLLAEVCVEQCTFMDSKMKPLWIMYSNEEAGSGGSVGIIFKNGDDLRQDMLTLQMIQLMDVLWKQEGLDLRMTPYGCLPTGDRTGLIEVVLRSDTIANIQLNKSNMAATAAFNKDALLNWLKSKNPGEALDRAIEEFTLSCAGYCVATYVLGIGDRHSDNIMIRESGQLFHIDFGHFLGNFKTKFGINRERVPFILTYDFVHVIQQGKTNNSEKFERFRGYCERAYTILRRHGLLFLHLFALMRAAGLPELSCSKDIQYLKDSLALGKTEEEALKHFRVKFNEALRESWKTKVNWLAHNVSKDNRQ

PI3K alpha, sequence (P42336 other isoform, or with tags, fused parts or gaps): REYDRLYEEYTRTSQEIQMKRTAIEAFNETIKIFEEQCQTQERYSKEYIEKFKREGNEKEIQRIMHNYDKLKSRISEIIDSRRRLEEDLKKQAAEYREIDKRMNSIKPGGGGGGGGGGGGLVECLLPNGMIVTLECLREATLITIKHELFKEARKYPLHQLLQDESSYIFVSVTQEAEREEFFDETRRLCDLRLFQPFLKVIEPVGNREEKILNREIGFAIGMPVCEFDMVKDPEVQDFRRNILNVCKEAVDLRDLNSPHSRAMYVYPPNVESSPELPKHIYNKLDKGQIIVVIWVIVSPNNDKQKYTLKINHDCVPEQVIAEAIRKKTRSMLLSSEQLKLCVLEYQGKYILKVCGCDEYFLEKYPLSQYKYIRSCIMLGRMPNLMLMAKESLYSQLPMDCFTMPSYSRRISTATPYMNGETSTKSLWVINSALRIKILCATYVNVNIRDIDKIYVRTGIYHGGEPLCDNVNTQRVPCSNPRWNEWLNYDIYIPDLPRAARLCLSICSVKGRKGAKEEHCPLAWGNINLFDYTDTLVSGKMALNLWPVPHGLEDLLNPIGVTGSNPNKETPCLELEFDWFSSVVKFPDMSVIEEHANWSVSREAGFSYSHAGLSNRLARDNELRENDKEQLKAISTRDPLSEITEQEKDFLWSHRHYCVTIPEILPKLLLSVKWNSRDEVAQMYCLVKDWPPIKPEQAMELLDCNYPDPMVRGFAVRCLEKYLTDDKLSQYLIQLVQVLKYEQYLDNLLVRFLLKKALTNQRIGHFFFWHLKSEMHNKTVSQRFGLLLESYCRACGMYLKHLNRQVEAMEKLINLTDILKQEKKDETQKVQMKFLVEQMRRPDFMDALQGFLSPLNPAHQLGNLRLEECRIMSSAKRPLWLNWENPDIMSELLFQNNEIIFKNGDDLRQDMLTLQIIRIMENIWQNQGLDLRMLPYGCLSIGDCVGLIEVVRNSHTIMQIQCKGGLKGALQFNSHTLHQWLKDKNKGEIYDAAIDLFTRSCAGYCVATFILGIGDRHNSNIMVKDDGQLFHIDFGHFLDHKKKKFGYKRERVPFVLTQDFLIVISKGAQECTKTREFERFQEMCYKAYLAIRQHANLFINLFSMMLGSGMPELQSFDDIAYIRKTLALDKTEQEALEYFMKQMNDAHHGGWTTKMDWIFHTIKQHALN

IC50 (PI3K alpha) [nM]	IC50 (PI3K delta; enzymatic assay) [nM]	SMILES	IC50 (murine B cells) [nM]	IC50 (PI3K delta) [nM]
374	9	COc1cc(N2CCc3ncnc(O[C@H]4CCN(C(=O)C5CCOC(C)(C)C5)C4)c3C2)cnc1OC (stereo partly drawn) [Example 24, {(S)-3-[6-(5,6-Dimethoxy-pyridin-3-yl)-5,6,7,8-tetrahydro-pyrido[4,3-d]pyrimidin-4-yloxy]-pyrrolidin-1-yl}-(2,2-dimethyl-tetrahydro-pyran-4-yl)-methanone]	–	–
1330	20	COc1ncc(N2CCc3ncnc(O[C@H]4CCN(C(=O)N5CCOCC5)C4)c3C2)cc1C(F)(F)F [Example 86, -{(S)-3-[6-(6-Methoxy-5-trifluoromethyl-pyridin-3-yl)-5,6,7,8-tetrahydro-pyrido[4,3-d]pyrimidin-4-yloxy]-pyrrolidin-1-yl}-morpholin-4-yl-methanone]	–	–
803	27	COc1ncc(N2CCc3ncnc(O[C@H]4CCN(C(=O)C5CCC(=O)N5)C4)c3C2)cc1C(F)(F)F (stereo partly drawn) [Example 46, 5-{(S)-3-[6-(6-Methoxy-5-trifluoromethyl-pyridin-3-yl)-5,6,7,8-tetrahydro-pyrido[4,3-d]pyrimidin-4-yloxy]-pyrrolidine-1-carbonyl}-pyrrolidin-2-one]	–	–
1830	13	COc1ncc(N2CCc3ncnc(O[C@H]4CCN(C(=O)c5coc(C)n5)C4)c3C2)cc1C [Example 14, {(S)-3-[6-(6-Methoxy-5-methyl-pyridin-3-yl)-5,6,7,8-tetrahydro-pyrido[4,3-d]pyrimidin-4-yloxy]-pyrrolidin-1-yl}-(2-methyl-oxazol-4-yl)-methanone]	–	–
518	29	COc1ncc(N2CCc3ncnc(O[C@H]4CCN(C(=O)c5cn(C)nc5C)C4)c3C2)cc1C(F)(F)F [Example 48, (1,3-Dimethyl-1H-pyrazol-4-yl)-{(S)-3-[6-(6-methoxy-5-trifluoromethyl-pyridin-3-yl)-5,6,7,8-tetrahydro-pyrido[4,3-d]pyrimidin-4-yloxy]-pyrrolidin-1-yl}-methanone]	–	–
2390	15	COc1ncc(N2CCc3ncnc(O[C@H]4CCN(C(=O)C5CCOCC5)C4)c3C2)cc1C#N [Example 3, 2-Methoxy-5-{4-[(S)-1-(tetrahydro-pyran-4-carbonyl)-pyrrolidin-3-yloxy]-7,8-dihydro-5H-pyrido[4,3-d]pyrimidin-6-yl}-nicotinonitrile]	–	–
781	17	COc1ncc(N2CCc3ncnc(N[C@H]4CCN(C(=O)c5cocn5)C4)c3C2)cc1C [Example 79, {(S)-3-[6-(6-Methoxy-5-methyl-pyridin-3-yl)-5,6,7,8-tetrahydro-pyrido[4,3-d]pyrimidin-4-ylamino]-pyrrolidin-1-yl}-oxazol-4-yl-methanone]	–	–
118	4	COc1ncc(N2CCc3ncnc(N[C@H]4CCN(C(=O)[C@H]5CC[C@@H](O)CC5)C4)c3C2)cc1C(F)(F)F (single isomer, unassigned) [Example 75]	–	–
2910	9	COc1ncc(N2CCc3ncnc(O[C@H]4CCN(C(=O)C5CCCC5)C4)c3C2)cc1C#N [Example 9, 5-[4-((S)-1-Cyclopentanecarbonyl-pyrrolidin-3-yloxy)-7,8-dihydro-5H-pyrido[4,3-d]pyrimidin-6-yl]-2-methoxy-nicotinonitrile]	–	–
2040	23	COc1ncc(N2CCc3ncnc(O[C@H]4CCN(C(=O)c5conc5C)C4)c3C2)cc1C [Example 32, {(S)-3-[6-(6-Methoxy-5-methyl-pyridin-3-yl)-5,6,7,8-tetrahydro-pyrido[4,3-d]pyrimidin-4-yloxy]-pyrrolidin-1-yl}-(3-methyl-isoxazol-4-yl)-methanone]	–	–
430	16	COc1ncc(N2CCc3ncnc(N[C@H]4CCN(C(=O)C5CCOC(C)(C)C5)C4)c3C2)cc1C (stereo partly drawn) [Example 80, (2,2-Dimethyl-tetrahydro-pyran-4-yl)-{(S)-3-[6-(6-methoxy-5-methyl-pyridin-3-yl)-5,6,7,8-tetrahydro-pyrido[4,3-d]pyrimidin-4-ylamino]-pyrrolidin-1-yl}-methanone]	–	–
1970	13	COc1ncc(N2CCc3ncnc(O[C@H]4CCN(C(=O)C5CCOCC5)C4)c3C2)cc1F [Example 7]	–	–
2540	9	COc1ncc(N2CCc3ncnc(O[C@H]4CCN(C(=O)C5CCN(C(C)=O)CC5)C4)c3C2)cc1C(F)(F)F [Example 92, 1-(4-{(S)-3-[6-(6-Methoxy-5-trifluoromethyl-pyridin-3-yl)-5,6,7,8-tetrahydro-pyrido[4,3-d]pyrimidin-4-yloxy]-pyrrolidine-1-carbonyl}-piperidin-1-yl)-ethanone]	–	–
1020	46	COc1ncc(N2CCc3ncnc(O[C@H]4CCN(C(=O)c5cnccn5)C4)c3C2)cc1C(F)(F)F [Example 52, {(S)-3-[6-(6-Methoxy-5-trifluoromethyl-pyridin-3-yl)-5,6,7,8-tetrahydro-pyrido[4,3-d]pyrimidin-4-yloxy]-pyrrolidin-1-yl}-pyrazin-2-yl-methanone]	–	–
912	44	COc1ncc(N2CCc3ncnc(O[C@H]4CCN(C(=O)c5nnc(C)o5)C4)c3C2)cc1C(F)(F)F [Example 51, {(S)-3-[6-(6-Methoxy-5-trifluoromethyl-pyridin-3-yl)-5,6,7,8-tetrahydro-pyrido[4,3-d]pyrimidin-4-yloxy]-pyrrolidin-1-yl}-(5-methyl-[1,3,4]oxadiazol-2-yl)-methanone]	–	–
129	10	COc1cc(N2CCc3ncnc(O[C@H]4CCN(C(=O)c5coc(C)n5)C4)c3C2)cnc1OC [Example 23, {(S)-3-[6-(5,6-Dimethoxy-pyridin-3-yl)-5,6,7,8-tetrahydro-pyrido[4,3-d]pyrimidin-4-yloxy]-pyrrolidin-1-yl}-(2-methyl-oxazol-4-yl)-methanone]	–	–

SMILES	IC50 (PI3K alpha) [nM]	IC50 (PI3K delta; enzymatic assay) [nM]	IC50 (murine B cells) [nM]	IC50 (PI3K delta) [nM]
CCC(=O)N1CC[C@H](Nc2ncnc3c2CN(c2cnc(OC)c(C(F)(F)F)c2)CC3)C1 [Example 67, 1-{(S)-3-[6-(6-Methoxy-5-trifluoromethyl-pyridin-3-yl)-5,6,7,8-tetrahydro-pyrido[4,3-d]pyrimidin-4-ylamino]-pyrrolidin-1-yl}-propan-1-one]	262	–	48.3	–
COc1ncc(N2CCc3ncnc(O[C@H]4CCN(c5ncccn5)C4)c3C2)cc1C(F)(F)F [Example 66, 6-(6-Methoxy-5-trifluoromethyl-pyridin-3-yl)-4-((S)-1-pyrimidin-2-yl-pyrrolidin-3-yloxy)-5,6,7,8-tetrahydro-pyrido[4,3-d]pyrimidine]	1280	–	–	14
